Measured values taken from ChEMBL document CHEMBL1122462, “Potential antiatherosclerotic agents. 4. [(Functionalized-alkyl)amino]benzoic acid analogues of cetaben” (1983).
Several values for one entry are separate records, joined by “and”; a condition that tells them apart may be missing. Equal values may be shown once.

How the values were obtained:
[1] = system: Rattus norvegicus; experiment: In vivo Triglyceride lowering activity at dose as 0.03 % of the diet; assay type: functional
[2] = system: Rattus norvegicus; experiment: In vivo sterol lowering activity, dosed as 0.03 % of the diet; assay type: functional
[3] = system: Rattus norvegicus; experiment: In vivo sterol lowering activity at dose of 0.10 % of the diet; assay type: functional
[4] = system: Rattus norvegicus; experiment: In vivo Triglyceride lowering activity at dose as 0.01 % of the diet; assay type: functional
[5] = system: Rattus norvegicus; experiment: In vivo Triglyceride lowering activity at a dose of 0.10 % of the diet; assay type: functional
[6] = system: Rattus norvegicus; experiment: In vivo Sterol lowering activity at dose as 0.01% of the diet; assay type: functional
[7] = target: T1, Sterol O-acyltransferase 1 (Rattus norvegicus) (UniProt O70536); experiment: In vitro inhibitory activity against acyl coenzyme A:cholesterol acyltransferase; design: concentration or dose not given beside the values; conditions: concentration not given here
T1 sequence (whole entry): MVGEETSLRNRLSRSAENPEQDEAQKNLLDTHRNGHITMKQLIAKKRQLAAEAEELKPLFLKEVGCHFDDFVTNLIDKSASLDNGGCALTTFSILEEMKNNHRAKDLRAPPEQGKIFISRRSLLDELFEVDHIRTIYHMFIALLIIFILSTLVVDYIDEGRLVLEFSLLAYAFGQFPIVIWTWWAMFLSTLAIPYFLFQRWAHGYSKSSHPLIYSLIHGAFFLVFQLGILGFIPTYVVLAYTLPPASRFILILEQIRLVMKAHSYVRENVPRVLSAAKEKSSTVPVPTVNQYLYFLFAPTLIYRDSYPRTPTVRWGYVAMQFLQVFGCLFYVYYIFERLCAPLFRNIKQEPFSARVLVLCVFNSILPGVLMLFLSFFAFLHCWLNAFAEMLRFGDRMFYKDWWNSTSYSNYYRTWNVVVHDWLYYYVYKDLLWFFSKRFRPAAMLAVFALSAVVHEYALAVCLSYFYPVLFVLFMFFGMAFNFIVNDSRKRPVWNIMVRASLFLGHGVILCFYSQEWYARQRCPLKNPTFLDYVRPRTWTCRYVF

Structure (SMILES) | inhibition [7] | triglyceride lowering activity [1] | serum sterol level, percent of control [2] | serum sterol level, % of control [3] | serum triglyceride level (% of control) [4] | serum triglyceride level (% of control) [5] | serum sterol level, percent of control [6]
CCCCCCCCCC/C(CCCCCNc1ccc(C(=O)O)cc1)=N/O | – | <30% | <84% | <75% | <52% | <31% | 86%
Br.CCOC(=O)c1ccc(NC(=O)CCCCCCCCCCSC(=N)N)cc1 | < 91% | – | – | 92% | – | 96% | –
CCOC(=O)c1ccc(NC(=O)C(F)(F)C(F)(F)C(F)(F)C(F)(F)C(F)(F)C(F)(F)C(F)(F)F)cc1 | 0% | <43% | <73% | <69% | <61% | – | <68%
CCCCCCCCCCC(O)CCCCCNc1ccc(C(=O)O)cc1 (stereo not given) | – | <43% | 96% | <86% | <66% | <31% | 104%
O=C([O-])CCCCCCCCCCCCCCCNc1ccc(C(=O)[O-])cc1.[Na+].[Na+] | – | 97% | 102% | 106% | 93% | 132% | 102%
CCOC(=O)c1ccc(NC(=O)CCCCCCCCCCBr)cc1 | < 71% | – | – | 115% | – | 100% | –
CCOC(=O)c1ccc(NCCCCCCCCCCNc2ccc(C(=O)OCC)cc2)cc1 | 7% | – | – | 140% | – | 98% | –
O=C(O)c1ccc(NCCCCCCCCCCCCCCCC(F)(F)F)cc1 | – | <41% | <72% | <61% | <46% | <42% | <75%
CCOC(=O)c1ccc(NCCCCCCCCCCCCNc2ccc(C(=O)OCC)cc2)cc1 | 2% | – | – | 103% | – | <68% | –
O=C(O)c1ccc(NCCCCCCCCCCCSc2ccc(C(=O)O)cc2)cc1 | < 29% | 92% | 104% | 98% | – | 78% | –
O=C(O)c1ccc(NCCCCCCCCCCCCNc2ccc(C(=O)O)cc2)cc1 | < 60% | – | – | 103% | – | 89% | –
O=C(O)c1ccc(N2CCCC2=O)cc1 | 0% | – | – | – | – | – | –
CCOC(=O)c1ccc(NCCCCCCCCCCCSc2ccc(C(=O)OCC)cc2)cc1 | < 45% | – | – | 102% | – | 132% | –

Further lines, with some results ahead:

inhibition [7] | Structure (SMILES) | triglyceride lowering activity [1] | serum sterol level, percent of control [2] | serum sterol level, % of control [3] | serum triglyceride level (% of control) [4] | serum triglyceride level (% of control) [5] | serum sterol level, percent of control [6]
< 53% | CCCCCCCCCCC(C)(O)CCCCCNc1ccc(C(=O)O)cc1 (stereo not given) | – | – | <73% | – | <37% | –
< 56% | CCCCSCCCCCCCCCCC(=O)Nc1ccc(C(=O)OC)cc1 | – | – | 92% | – | 81% | –
< 22% | COCCCCCCCCCCCCCCCCN(C(C)=O)c1ccc(C(=O)O)cc1 | – | – | 100% | – | 93% | –
< 62% | CCCCOCCCCCCCCCCCNc1ccc(C(=O)O)cc1 | – | – | 91% | 74% | <44% | <86%
< 60% | C[Si](C)(C)CCCCCCCCCCCCCCNc1ccc(C(=O)O)cc1 | – | – | – | – | – | –
< 59% | CCCCCCCCCCC(C)(O)CCCCCNc1ccc(C(=O)OCC)cc1 (stereo not given) | – | – | <82% | – | <28% | –
< 71% | CCOC(=O)c1ccc(N(CCCCCCCCCCCBr)C(=O)OCc2ccccc2)cc1 | – | – | 100% | – | 91% | –
< 79% | CCCCCCCCCCC(S)CCCCCNc1ccc(C(=O)O)cc1 (stereo not given) | – | – | 84% | – | <43% | –
< 56% | C[Si](C)(C)CCCCCCCCCCCNc1ccc(C(=O)O)cc1 | – | – | – | – | – | –
7% and < 32% | CCCCCCCCCCCCCCCCN(CS(=O)(=O)O)c1ccc(C(=O)O)cc1 | – | – | – | – | – | –
